± gives the uncertainty stated by the source.
Experiment: xn = mol fraction of the nth substance listed

[N-]=C=S.[NH4+] + CC(=O)[O-].CC[n+]1ccn(C)c1
electrical conductivity (298.15 K, 101 kPa, x1 = 0.3001): 0.344 ± 0.011 S/m
viscosity (298.15 K, 101 kPa, x1 = 0.3001): 194.6 ± 6.6 mPa·s
electrical conductivity (298.15 K, 101 kPa, x1 = 0.3199): 0.353 ± 0.011 S/m
viscosity (298.15 K, 101 kPa, x1 = 0.3199): 195.4 ± 6.6 mPa·s
electrical conductivity (303.15 K, 101 kPa, x1 = 0.1002): 0.371 ± 0.012 S/m
viscosity (303.15 K, 101 kPa, x1 = 0.1002): 117.6 ± 3.6 mPa·s
electrical conductivity (303.15 K, 101 kPa, x1 = 0.1998): 0.386 ± 0.012 S/m
viscosity (303.15 K, 101 kPa, x1 = 0.1998): 139.3 ± 4.4 mPa·s
electrical conductivity (303.15 K, 101 kPa, x1 = 0.3001): 0.447 ± 0.014 S/m
viscosity (303.15 K, 101 kPa, x1 = 0.3001): 141.9 ± 4.4 mPa·s
electrical conductivity (308.15 K, 101 kPa, x1 = 0.1998): 0.491 ± 0.016 S/m
viscosity (308.15 K, 101 kPa, x1 = 0.1998): 104 ± 2.9 mPa·s
electrical conductivity (308.15 K, 101 kPa, x1 = 0.2514): 0.525 ± 0.017 S/m
electrical conductivity (308.15 K, 101 kPa, x1 = 0.3413): 0.587 ± 0.019 S/m
electrical conductivity (313.15 K, 101 kPa, x1 = 0.3413): 0.807 ± 0.026 S/m
viscosity (313.15 K, 101 kPa, x1 = 0.3413): 81.7 ± 2 mPa·s
electrical conductivity (318.15 K, 101 kPa, x1 = 0.1998): 0.852 ± 0.027 S/m
viscosity (318.15 K, 101 kPa, x1 = 0.1998): 61.5 ± 1.5 mPa·s
viscosity (328.15 K, 101 kPa, x1 = 0.1002): 34.29 ± 0.88 mPa·s
viscosity (328.15 K, 101 kPa, x1 = 0.3199): 39.29 ± 0.91 mPa·s
viscosity (333.15 K, 101 kPa, x1 = 0.02): 25.64 ± 0.68 mPa·s
viscosity (333.15 K, 101 kPa, x1 = 0.1002): 28.06 ± 0.72 mPa·s
viscosity (333.15 K, 101 kPa, x1 = 0.1998): 31.2 ± 0.78 mPa·s
viscosity (333.15 K, 101 kPa, x1 = 0.3001): 31.43 ± 0.74 mPa·s

CCCCCCCCCC[n+]1ccn(C)c1.[Cl-] + CC(C)O
electrical conductivity (298.15 K, 101.3 kPa, frequency 5e-05 MHz, x1 = 0.01207): 0.0497 ± 0.002 S/m
electrical conductivity (298.15 K, 101.3 kPa, frequency 5e-05 MHz, x1 = 0.02515): 0.0872 ± 0.0038 S/m
electrical conductivity (298.15 K, 101.3 kPa, frequency 5e-05 MHz, x1 = 0.03936): 0.126 ± 0.006 S/m
electrical conductivity (298.15 K, 101.3 kPa, frequency 5e-05 MHz, x1 = 0.05486): 0.17 ± 0.01 S/m
electrical conductivity (298.15 K, 101.3 kPa, frequency 5e-05 MHz, x1 = 0.07184): 0.218 ± 0.01 S/m
electrical conductivity (298.15 K, 101.3 kPa, frequency 5e-05 MHz, x1 = 0.09051): 0.266 ± 0.012 S/m
electrical conductivity (298.15 K, 101.3 kPa, frequency 5e-05 MHz, x1 = 0.1111): 0.308 ± 0.013 S/m
electrical conductivity (298.15 K, 101.3 kPa, frequency 5e-05 MHz, x1 = 0.134): 0.337 ± 0.014 S/m
electrical conductivity (298.15 K, 101.3 kPa, frequency 5e-05 MHz, x1 = 0.1597): 0.348 ± 0.014 S/m
electrical conductivity (298.15 K, 101.3 kPa, frequency 5e-05 MHz, x1 = 0.1884): 0.343 ± 0.014 S/m
electrical conductivity (298.15 K, 101.3 kPa, frequency 5e-05 MHz, x1 = 0.2211): 0.326 ± 0.013 S/m
electrical conductivity (298.15 K, 101.3 kPa, frequency 5e-05 MHz, x1 = 0.2583): 0.312 ± 0.012 S/m
electrical conductivity (298.15 K, 101.3 kPa, frequency 5e-05 MHz, x1 = 0.3013): 0.325 ± 0.014 S/m
electrical conductivity (298.15 K, 101.3 kPa, frequency 5e-05 MHz, x1 = 0.3514): 0.399 ± 0.022 S/m
electrical conductivity (298.15 K, 101.3 kPa, frequency 5e-05 MHz, x1 = 0.4106): 0.584 ± 0.036 S/m
electrical conductivity (298.15 K, 101.3 kPa, frequency 5e-05 MHz, x1 = 0.4815): 0.944 ± 0.038 S/m

CS(=O)(=O)[O-].C[N+](C)(CCO)CCO + CC(C)O
viscosity (298.15 K, 101 kPa, x1 = 0.0998): 5.62 ± 0.34 mPa·s
viscosity (298.15 K, 101 kPa, x1 = 0.2001): 13.5 ± 0.8 mPa·s
viscosity (298.15 K, 101 kPa, x1 = 0.3002): 30.1 ± 1.8 mPa·s
viscosity (298.15 K, 101 kPa, x1 = 0.4004): 61 ± 4 mPa·s
viscosity (298.15 K, 101 kPa, x1 = 0.4982): 123 ± 8 mPa·s
viscosity (298.15 K, 101 kPa, x1 = 0.5999): 227 ± 17 mPa·s
viscosity (298.15 K, 101 kPa, x1 = 0.6997): 385 ± 34 mPa·s
viscosity (298.15 K, 101 kPa, x1 = 0.7978): 628 ± 62 mPa·s
viscosity (298.15 K, 101 kPa, x1 = 0.8994): 1025 ± 110 mPa·s
viscosity (298.15 K, 101 kPa, x1 = 1): 1495 ± 180 mPa·s
viscosity (303.15 K, 101 kPa, x1 = 0.0998): 4.78 ± 0.29 mPa·s
viscosity (303.15 K, 101 kPa, x1 = 0.2001): 11.45 ± 0.7 mPa·s
viscosity (303.15 K, 101 kPa, x1 = 0.3002): 24.1 ± 1.5 mPa·s
viscosity (303.15 K, 101 kPa, x1 = 0.4004): 47.7 ± 2.9 mPa·s
viscosity (303.15 K, 101 kPa, x1 = 0.4982): 86.7 ± 5.5 mPa·s
viscosity (303.15 K, 101 kPa, x1 = 0.5999): 168 ± 12 mPa·s
viscosity (303.15 K, 101 kPa, x1 = 0.6997): 281 ± 23 mPa·s
viscosity (303.15 K, 101 kPa, x1 = 0.7978): 445 ± 40 mPa·s
viscosity (303.15 K, 101 kPa, x1 = 0.8994): 712 ± 72 mPa·s
viscosity (303.15 K, 101 kPa, x1 = 1): 1021 ± 110 mPa·s
viscosity (308.15 K, 101 kPa, x1 = 0.0998): 4.13 ± 0.25 mPa·s
viscosity (308.15 K, 101 kPa, x1 = 0.2001): 9.67 ± 0.59 mPa·s
viscosity (308.15 K, 101 kPa, x1 = 0.3002): 19.7 ± 1.2 mPa·s
viscosity (308.15 K, 101 kPa, x1 = 0.4004): 38 ± 2.3 mPa·s
viscosity (308.15 K, 101 kPa, x1 = 0.4982): 67.4 ± 4.1 mPa·s
viscosity (308.15 K, 101 kPa, x1 = 0.5999): 128.7 ± 8.6 mPa·s
viscosity (308.15 K, 101 kPa, x1 = 0.6997): 210 ± 16 mPa·s
viscosity (308.15 K, 101 kPa, x1 = 0.7978): 324 ± 27 mPa·s
viscosity (308.15 K, 101 kPa, x1 = 0.8994): 507 ± 47 mPa·s
viscosity (308.15 K, 101 kPa, x1 = 1): 716 ± 73 mPa·s
viscosity (313.15 K, 101 kPa, x1 = 0.0998): 3.6 ± 0.22 mPa·s
viscosity (313.15 K, 101 kPa, x1 = 0.2001): 8.13 ± 0.5 mPa·s
viscosity (313.15 K, 101 kPa, x1 = 0.3002): 16.3 ± 1 mPa·s
viscosity (313.15 K, 101 kPa, x1 = 0.4004): 30.7 ± 1.9 mPa·s
viscosity (313.15 K, 101 kPa, x1 = 0.4982): 53.4 ± 3.2 mPa·s
viscosity (313.15 K, 101 kPa, x1 = 0.5999): 89.6 ± 5.7 mPa·s
viscosity (313.15 K, 101 kPa, x1 = 0.6997): 159 ± 11 mPa·s
viscosity (313.15 K, 101 kPa, x1 = 0.7978): 243 ± 19 mPa·s
viscosity (313.15 K, 101 kPa, x1 = 0.8994): 370 ± 32 mPa·s
viscosity (313.15 K, 101 kPa, x1 = 1): 513 ± 48 mPa·s
viscosity (318.15 K, 101 kPa, x1 = 0.0998): 3.36 ± 0.2 mPa·s
viscosity (318.15 K, 101 kPa, x1 = 0.2001): 6.96 ± 0.42 mPa·s
viscosity (318.15 K, 101 kPa, x1 = 0.3002): 13.7 ± 0.8 mPa·s
viscosity (318.15 K, 101 kPa, x1 = 0.4004): 25.2 ± 1.5 mPa·s
viscosity (318.15 K, 101 kPa, x1 = 0.4982): 43 ± 2.6 mPa·s
viscosity (318.15 K, 101 kPa, x1 = 0.5999): 70.7 ± 4.3 mPa·s
viscosity (318.15 K, 101 kPa, x1 = 0.6997): 123.6 ± 8.2 mPa·s
viscosity (318.15 K, 101 kPa, x1 = 0.7978): 186 ± 13 mPa·s
viscosity (318.15 K, 101 kPa, x1 = 0.8994): 278 ± 22 mPa·s
viscosity (318.15 K, 101 kPa, x1 = 1): 378 ± 33 mPa·s
viscosity (323.15 K, 101 kPa, x1 = 0.0998): 2.83 ± 0.17 mPa·s
viscosity (323.15 K, 101 kPa, x1 = 0.2001): 6.02 ± 0.37 mPa·s
viscosity (323.15 K, 101 kPa, x1 = 0.3002): 11.86 ± 0.72 mPa·s
viscosity (323.15 K, 101 kPa, x1 = 0.4004): 21 ± 1.3 mPa·s
viscosity (323.15 K, 101 kPa, x1 = 0.4982): 35.1 ± 2.1 mPa·s
viscosity (323.15 K, 101 kPa, x1 = 0.5999): 56.7 ± 3.4 mPa·s
viscosity (323.15 K, 101 kPa, x1 = 0.6997): 87 ± 5 mPa·s
viscosity (323.15 K, 101 kPa, x1 = 0.7978): 143.8 ± 9.9 mPa·s
viscosity (323.15 K, 101 kPa, x1 = 0.8994): 211 ± 16 mPa·s
viscosity (323.15 K, 101 kPa, x1 = 1): 282 ± 23 mPa·s

— the CheMixHub ionic liquid set
